# Source: patent US10485874B2, “Hyaluronic acid modified by sphingosine-1-phosphoric acid” (priority 2014, dated 2019)
# Key:
# [1] = test system: serum ALT; assay: Rat total liver ischemia/reperfusion model: serum ALT (liver function); format: in vivo, Sprague-Dawley rats; conditions: 100 μg/kg in terms of S1P via tail vein 10 min before 20 min total liver ischemia
# Procedure: (§1) Male Sprague-Dawley (hereinbelow, SD) rats, 200 to 250 g, were obtained from CLEA Japan, Inc. (Tokyo, Japan). Four groups of SD rats were studied.
# (§2) A study was conducted for a methanol-administration group, where methanol was the solvent for S1P (the content of administration:methanol (50 μl)+3% BSA (150 μl), 200 μl in total), a HA-administration group (the content of administration: 8 kDa HA dissolved in methanol:ultrapure water=1:3 at 0.32564 g/l, 200 μl in total), an S1P-administration group (the content of administration: 100 μg/kg in terms of the dose of S1P, S1P (50 μl)+3% BSA (150 μl), 200 μl in total), a HA-S1P-administration group (the content of administration: 100 μg/kg in terms of the dose of S1P, the HA-S1P formulation prepared at Hokkaido University was dissolved in methanol:ultrapure water=1:3 at 0.358 g/l, 200 μl in total).
# Each agent was injected into the tail vein of rats. Ten minutes after the injection, the hepatic artery, portal vein, and bile duct were occluded at once with microclips for 20 minutes. Upon completion of 20 minutes of total liver ischemia, the occlusion was released. For pathological examination, liver tissues were removed from 10 to 15 rats in each group 120 minutes after reperfusion. Also, blood was collected immediately before the injection of the agents and 30 minutes, 60 minutes, and 120 minutes after reperfusion.
# In order to evaluate the injury of liver parenchyma, the serum ALT value was measured with an autoanalyzer (FUJI DRI-CHEM 7000V, Fujifilm, Tokyo, Japan).
# Statistical analysis was conducted using the Kruskal Wallis H-test and the Mann-Whitney U test with Bonferroni correction as a post hoc test. Also, p< 0.05 was accepted to be indicative of statistical significance.
# Using 200 to 250 g SD rats, four experimental groups (A) to (D) were prepared. […]
# [2] = test system: cleaved caspase 3; assay: Rat liver ischemia/reperfusion model: Western blot of cleaved caspase 3 in liver tissue; format: in vivo, Sprague-Dawley rats; conditions: liver tissue 120 minutes after reperfusion
# Procedure: as §1, §2
# (§3) Each agent was injected into the tail vein of rats. Ten minutes after the injection, the hepatic artery, portal vein, and bile duct were occluded at once with microclips for 20 minutes. Upon completion of 20 minutes of total liver ischemia, the occlusion was released. For pathological examination, liver tissues were removed from 10 to 15 rats in each group 120 minutes after reperfusion. Also, blood was collected immediately before the injection of the agents and 30 minutes, 60 minutes, and 120 minutes after reperfusion. […]
# [3] = test system: HO-1; assay: Rat liver ischemia/reperfusion model: Western blot of HO-1 in liver tissue; format: in vivo, Sprague-Dawley rats; conditions: liver tissue 120 minutes after reperfusion
# Procedure: as §1, §2, §3
# [4] = test system: sinusoid structure; assay: Rat liver ischemia/reperfusion model: HE staining, pathological evaluation of liver; format: in vivo, Sprague-Dawley rats; conditions: liver tissue 120 minutes after reperfusion; 200× field
# Procedure: as §1, §2
# Each agent was injected into the tail vein of rats. Ten minutes after the injection, the hepatic artery, portal vein, and bile duct were occluded at once with microclips for 20 minutes. Upon completion of 20 minutes of total liver ischemia, the occlusion was released. […]
# The liver tissues were fixed in 10% buffered formalin, and then embedded in paraffin, followed by staining with hematoxylin and eosin. The tissue sections of each group were evaluated. […]
# [5] = test system: TUNEL-positive cells; assay: Rat liver ischemia/reperfusion model: TUNEL staining of liver (apoptosis-positive cells); format: in vivo, Sprague-Dawley rats
# Procedure: as §1, §2
# Each agent was injected into the tail vein of rats. Ten minutes after the injection, the hepatic artery, portal vein, and bile duct were occluded at once with microclips for 20 minutes. […]
# Using DeadEnd® Colorimetric TUNEL System (G7360) supplied by Promega KK, apoptosis-positive cells were immunohistochemically detected. The tissue sections of each group were evaluated. The number of TUNEL-positive cells and the total number of hepatocytes were counted in 10 randomly selected high-power fields (400×) focusing on the portal vein. […]
# [6] = test system: liver sinusoidal endothelial cells; assay: Rat liver ischemia/reperfusion model: electron microscopic evaluation of the microstructure of liver; format: in vivo, Sprague-Dawley rats; conditions: liver excised 120 minutes after reperfusion
# Procedure: as §1, §2
# Each agent was injected into the tail vein of rats. Ten minutes after the injection, the hepatic artery, portal vein, and bile duct were occluded at once with microclips for 20 minutes. Upon completion of 20 minutes of total liver ischemia, the occlusion was released. For pathological examination, liver tissues were removed from 10 to 15 rats in each group 120 minutes after reperfusion. […]
# The liver sinusoidal endothelial cells after ischemia/reperfusion were evaluated with an electron microscopy. […]
# [7] = Accumulation of S1P in the liver by Western blot; format: in vivo, rat; conditions: Western blot with anti-S1P antibody; versus the S1P only sample
# Procedure: The expression of S1P in the liver tissues was confirmed by Western blot in accordance with the following method.
# The rat liver tissues stored at −80° C. were homogenized in a buffer prepared from various reagents (150 mmol/L NaCl, 50 mM Tris-Cl, 1% NP-40, and a protease inhibitor). The resulting samples were centrifuged and the supernatants were collected for analysis. The samples thus obtained were separated using 10% SDS-PAGE gel and transferred to nitrocellulose membranes (Millipore, Bedford, Mass.). As the primary antibody, Anti-S1P antibody (ab140592) (1:1000, rabbit polyclonal, Abcam, Cambridge, UK) was used. As the secondary antibody, Anti-rabbit IgG, HRP-linked antibody (#7074S) (1:1000, Cell Signalling Technology, Beverley, Mass., USA) was used.
substance,measurement,setting,value
hyaluronic acid modified with sphingosine-1-phosphate [HA-S1P],serum ALT value,"[1]; 30 minutes after reperfusion, versus vehicle and S1P groups",significantly lower
same,serum ALT value,"[1]; 60 minutes after reperfusion, versus vehicle, HA and S1P groups",significantly lower
same,serum ALT value,"[1]; 120 minutes after reperfusion, versus HA group",significantly lower
same,expression of the apoptosis-related protein cleaved caspase 3,[2],inhibited
same,expression of HO-1,[3],increased
same,sinusoid structure (HE staining),[4],sinusoid structure was maintained
same,percentage of TUNEL-positive cells (TUNEL-positive cells/total number of hepatocytes),"[5]; 400× fields centering around Zone 1, 10 fields per sample, 120 minutes after reperfusion",significantly low
same,"TUNEL staining, positive cells",[5]; liver tissue 120 minutes after reperfusion,positive cells were almost unobserved
same,microstructure of LSECs (electron microscopic images),[6],undercoat structure of LSECs was maintained
same,expression of S1P in the liver tissues,[7],higher
